According to patent US20240207228A1, “A COMBINATION COMPRISING A SPECIFIC HDAC6 INHIBITOR AND AT LEAST ONE CTLA4 CHECKPOINT INHIBITOR” (ITALFARMACO SPA, priority 2021, published 2024):

Legend:
female NOD mice = experiment: Diabetes induction in female NOD mice (glycemia); format: in vivo; details: day 0-21, ITF3756 50 mg/kg os 3x/day, antibodies 500 μg (d0) + 250 μg/mouse ip, diabetes = glucose >250 mg/dL two consecutive days
Protocol: NOD mice spontaneously developed diabetes and they represent a widely accepted spontaneous model of Type 1 diabetes mellitus (Pearson et al., 2016, Journal of Autoimmunity 66, 76-88).
ITF3756 was synthetized by the Medicinal Chemistry Dept. of Italfarmaco SpA. ITF3756, batch 9, as powder was solubilized in DMSO and stored at −20° C.
Antibody treatment was according to Ansari (Ansari et al., 2003, The Journal of experimental medicine 1 98, 63-69)
Glycemia was evaluated in all mice for 3 weeks from day 0 (start treatment) until day 21 (end of study). Blood glucose levels were measured by glucometer One Touch® Verio. Blood samples were drawn from the tail vein by a prick with a needle. A drop of blood was inserted in a test strip and glucometer automatically calculated the glucose level. Results were shown in the display of the instrument. The instrument measures from 20 to 600 mg/dL. Results below 20 or above 600 mg/dL are visualized by the instrument as “below 20” or “above 600”.
Diabetes was defined by blood glucose reading of >250 mg/dL for two consecutive days.
Mice were monitored for 3 weeks; during this time, body weight was measured 7 times.

[1] = system: 4T1 triple negative breast cancer; experiment: 4T1 breast cancer model, previous experiments with single agents; format: in vivo, mouse; details: each drug as single agent
Protocol: […] mice challenged with syngeneic tumor cell line 4T1 triple negative breast cancer are used.
4T1 tumor model is considered a poorly immunogenic tumor (Demaria et al., Clin. Cancer Res. 11, 728-734, 2005).
ITF3756 is used at the same dosage used for the treatment of CT26 colon cancer, namely 50 mg/kg (mpk) TID as single agent and in combination with anti CTLA-4 antibody. The latter is administered at 3 mpk 3 times a week on alternate days.
Tumor growth is induced after subcutaneous injection of cell line and mice are monitored for at least three weeks post-injection.

[2] = system: mouse colon carcinoma cell line CT26; experiment: Anti-tumor effect in the CT26 murine model (tumor growth inhibition from tumor nodule volume/weight); format: in vivo; design: key to Statistical significance vs Control group on day 10 / Statistical significance vs Control group on day 12 / Statistical significance vs Control group on day 14 / Statistical significance vs Control group on day 17 / Statistical significance vs Control group on day 19 / Statistical significance vs Control group on day 21 / Statistical significance vs Control group on day 24: n.s.: not significant; *: p < 0.05; **: p < 0.01; details: for Statistical significance vs Control group on day 10 / Statistical significance vs Control group on day 12 / Statistical significance vs Control group on day 14 / Statistical significance vs Control group on day 17 / Statistical significance vs Control group on day 19 / Statistical significance vs Control group on day 21 / Statistical significance vs Control group on day 24: CT26 tumor growth
Protocol: The anti-tumor efficacy of ITF3756, administered in combination with anti-CTLA4 antibody, has been determined using a murine model based on the use of the mouse colon carcinoma cell line CT26. In this model, the CT26 cells are implanted subcutaneously to syngeneic mice and the efficacy is determined as tumor growth inhibition on the basis of the volume of the tumor nodule.
ITF3756 was synthetized by the Medicinal Chemistry Dept. of Italfarmaco SpA. ITF3756, batch 5, as powder was solubilized in DMSO and stored at −20° C. On each day of administration, the solution was diluted with H2O/PEG 400 1:1 to obtain a final solution of H2O/PEG 400 1:1 in DMSO 0.5% at 2.5 and 5.0 mg/mL.
The solutions were administered orally by using gavage needles for mice, in a volume of 200 μL (final doses 25 and 50 mg/Kg).
ITF3756 administration started when the tumor nodules were palpable (around day 10 from cells inoculation).
Syrian hamster IgG Mab anti-mouse CTLA4 was purchased from BioXell (cat. BE0131, clone 9H10), diluted with PBS at 1, 0.3 and 0.1 mg/mL final concentration and stored at +4° C. Each mouse was treated with 200 μL of the respective solution (final doses 10.0, 3.0 and 1.0 mg/Kg).
Anti-CTLA4 Mab administration started when the tumor nodules were palpable (around day 10 from cells inoculation). Anti-CTLA4 was administered intraperitoneally (ip) once a day on alternate days for a total of 4 treatments, followed by 7 days of wash-out, as reported in table 1. This treatment cycle continued up to the end of the study.
Female 6 weeks old BALB/c mice were purchased from Charles River Italia and maintained with food and water ad libitum, under light-dark cycle of 12 hours.
After 5 days of acclimatization, the mice were submitted to tumor cells injection.
CT26 (murine BALB/c colon carcinoma, CT26.WT ATCC CRL-2638) cells were grown in RPMI 1640 cell culture medium+10% fetal calf serum (FCS).
The cells were detached, during the exponential phase, with trypsin, washed with the culture medium without FCS and suspended at 5×10^6 cells/mL final concentration.
The cells (1×10^6 cells/mouse) were injected s.c. in the inguinal region of the right flank of the mice in a volume of 200 μL.
When the tumor nodule was palpable in at least 80% of the animals, the mice were randomized in the following experimental groups and drugs administration was started.
Body weight was measured on alternate days, starting from the first day of drug administration.
The volume of subcutaneous tumor nodules was determined on alternate days, according to the following formula (Papagiannoros A. et al. in vivo 20:129-136, 2006):
where D=major diameter of the nodule and d=minor diameter of the nodule.
The weight of the tumor nodule was determined by the tumor volume considering a tumor density of 1.05 g/mL (Jensen M. M. et al. BMC Medical Imaging 8(16), 2008).
The animals were euthanized when the tumor weight was equal to the 10% of body weight or the tumor nodules were ulcerated (humane end-points).
The statistical analysis of the drugs effect was carried out by 2-way ANOVA with Dunnett's multiple comparisons test using GraphPad Prism 8 software.

[3] = Mean level in 24 hours after the efficacious schedule in the mouse; format: in vivo; details: administration schedule that had shown efficacy, used as target for projected doses
Protocol: The human doses for ITF3756 were predicted using a physiologically based pharmacokinetic (PBPK) model, through the use of the software GastroPlus™ (Simulation Plus, Lancaster, CA). The target Caverage for projected doses was 200 ng/mL, mean level in 24 hours found after the administration schedule that had shown efficacy in the mouse.

PD-L1 [4] = experiment: Cytokine-induced PD-L1 expression in human monocytes stimulated in vitro; format: cell-based
PD-L1 [5] = experiment: PD-L1 expression in mouse immune cells in vivo; details: ITF3756 50 mg/Kg three times a day

SMILES: O=C(NO)c1ccc(Cn2nnnc2-c2cccs2)cc1 [ITF3756, N-hydroxy-4-((5-(thiophen-2-yl)-1H-tetrazol-1-yl)methyl)benzamide]
- induction of diabetes (female NOD mice): did not accelerates the induction of autoimmune diabetes
- average reduction of tumor growth [1]: approximately 40%
- Statistical significance vs Control group on day 10 ([2]; ITF3756 25 mg/Kg): n.s.
- Statistical significance vs Control group on day 12 ([2]; ITF3756 25 mg/Kg): n.s.
- Statistical significance vs Control group on day 14 ([2]; ITF3756 25 mg/Kg): n.s.
- Statistical significance vs Control group on day 17 ([2]; ITF3756 25 mg/Kg): n.s.
- Statistical significance vs Control group on day 19 ([2]; ITF3756 25 mg/Kg): n.s.
- Statistical significance vs Control group on day 21 ([2]; ITF3756 25 mg/Kg): n.s.
- Statistical significance vs Control group on day 24 ([2]; ITF3756 25 mg/Kg): n.s.
- Statistical significance vs Control group on day 10 ([2]; ITF3756 50 mg/Kg): n.s.
- Statistical significance vs Control group on day 12 ([2]; ITF3756 50 mg/Kg): n.s.
- Statistical significance vs Control group on day 14 ([2]; ITF3756 50 mg/Kg): n.s.
- Statistical significance vs Control group on day 17 ([2]; ITF3756 50 mg/Kg): n.s.
- Statistical significance vs Control group on day 19 ([2]; ITF3756 50 mg/Kg): n.s.
- Statistical significance vs Control group on day 21 ([2]; ITF3756 50 mg/Kg): * (p < 0.05)
- Statistical significance vs Control group on day 24 ([2]; ITF3756 50 mg/Kg): n.s.
- Statistical significance vs Control group on day 10 ([2]; ITF3756 50 mg/Kg x3): n.s.
- Statistical significance vs Control group on day 12 ([2]; ITF3756 50 mg/Kg x3): n.s.
- Statistical significance vs Control group on day 14 ([2]; ITF3756 50 mg/Kg x3): n.s.
- Statistical significance vs Control group on day 17 ([2]; ITF3756 50 mg/Kg x3): n.s.
- Statistical significance vs Control group on day 19 ([2]; ITF3756 50 mg/Kg x3): * (p < 0.05)
- Statistical significance vs Control group on day 21 ([2]; ITF3756 50 mg/Kg x3): ** (p < 0.01)
- Statistical significance vs Control group on day 24 ([2]; ITF3756 50 mg/Kg x3): ** (p < 0.01)
- inhibition of tumor growth ([2]; ITF3756 25 mg/Kg orally once a day, day 24): 7%
- tumor weight ([2]; ITF3756 25 mg/Kg orally once a day, day 24, control 1.89 g): 1.76 g
- inhibition of tumor growth ([2]; ITF3756 25 mg/Kg orally once a day, entire experimental period): did not show a significant inhibition of tumor growth
- inhibition of tumor growth ([2]; ITF3756 50 mg/Kg orally 3 times a day, day 24): 30%
- tumor weight ([2]; ITF3756 50 mg/Kg orally 3 times a day, day 24, control 1.89 g): 1.32 g
- inhibition of tumor growth ([2]; ITF3756 50 mg/Kg orally once a day, day 21): 34%
- tumor weight ([2]; ITF3756 50 mg/Kg orally once a day, day 21, control 1.34 g): 0.88 g
- inhibition of tumor growth ([2]; ITF3756 50 mg/Kg orally once a day, day 24): 9%
- tumor weight ([2]; ITF3756 50 mg/Kg orally once a day, day 24, control 1.89 g): 1.72 g
- Caverage, mean level in 24 hours [3]: 200 ng/mL
- cytokine-induced expression of PD-L1 (PD-L1 [4]): decreases
- PD-L1 expression (PD-L1 [5]): decreased
